PubChem BioAssay (NCI)
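In this assay, cells in 96-well plates receive the compound at five concentrations for 48 hours. Endpoints are linearly interpolated between the surrounding concentrations. TGI: total growth inhibition.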

Assays:
Test in all cases: NCI anticancer screen, dose series, 48 h
KM12 colon = tested on: KM12 colon
OVCAR-8 ovarian = tested on: OVCAR-8 ovarian
CAKI-1 renal = tested on: CAKI-1 renal
DU-145 prostate = tested on: DU-145 prostate
SNB-78 CNS = tested on: SNB-78 CNS
DMS 114 small cell lung = tested on: DMS 114 small cell lung
DMS 273 small cell lung = tested on: DMS 273 small cell lung
DLD-1 colon = tested on: DLD-1 colon
M19-MEL melanoma = tested on: M19-MEL melanoma
KM20L2 colon = tested on: KM20L2 colon
LXFL 529 NSCLC = tested on: LXFL 529 NSCLC

SMILES | TGI (KM12 colon) [µM] | TGI (OVCAR-8 ovarian) [µM] | TGI (CAKI-1 renal) [µM] | TGI (DU-145 prostate) [µM] | TGI (SNB-78 CNS) [µM] | TGI (DMS 114 small cell lung) [µM] | TGI (DMS 273 small cell lung) [µM] | TGI (DLD-1 colon) [µM] | TGI (M19-MEL melanoma) [µM] | TGI (KM20L2 colon) [µM] | TGI (LXFL 529 NSCLC) [µM]
COc1ccc2c(c1)CN1C(=N2)CSC1c1cccc(Br)c1 (stereo unspecified) | > 100 | > 100 | > 100 |  |  |  |  |  |  |  | 
ONC1=Nc2cc(Cl)ccc2C(=S)N2CSCC12 (stereo unspecified) | > 100 | > 100 | > 100 | > 100 |  |  |  |  |  |  | 
CC1(C)N/C(=C\[N+](=O)[O-])C(C)(C)N1O | > 10 | > 10 | > 10 | > 10 |  |  |  |  |  |  | 
COC(=O)c1csc([C@@H](OC(=O)[C@H](C)[C@H](CCCC(C)(Cl)Cl)OC(=O)c2csc([C@H](O)CO)n2)C(C)C)n1 | 29.4 | 22.4 | 32.7 | 24.8 |  |  |  |  |  |  | 
O=[N+]([O-])c1ccc(CSc2nncc3[nH]cnc23)cc1 | > 100 | > 100 | > 100 |  |  |  |  |  |  |  | 
COc1c(=O)cc2cc[nH]c3cc[nH]c1c23 | > 100 | > 100 | > 100 | > 100 |  |  |  |  |  |  | 
C=CCCON(C(=O)OC(C)(C)C)c1ccccc1 | > 100 | > 100 | > 100 | > 100 |  |  |  |  |  |  | 
CC(C)CCNC(=O)c1ccc(CNC(=O)/C=C/c2cccc(Oc3ccccc3)c2)cc1 | > 100 | > 100 | > 100 | > 100 |  |  |  |  |  |  | 
O=C1/C(=C/C=C/c2ccccc2)CCC1CNc1ccccc1 (stereo unspecified) | 39.3 | > 100 | > 100 | > 100 |  |  |  |  |  |  | 
COc1cc2c(cc1OCCCCCCCCCCN1C(=O)c3cccc4cccc(c34)C1=O)N=C[C@@H]1CCCN1C2=O | 50.2 | 24.7 | 28.9 | 34.4 |  |  |  |  |  |  | 
CNC1(c2cc3ccccc3s2)CCCCC1 | 43.1 | > 100 | > 100 | > 100 |  |  |  |  |  |  | 
O=C1/C(=C\c2ccc([N+](=O)[O-])cc2)N(S(=O)(=O)c2ccccc2)c2ncccc21 | 44.3 | 70.2 | 20.9 | 75.4 |  |  |  |  |  |  | 
C=C(C)C1CCC(C(=O)O)CC1 (stereo unspecified) | > 100 | > 100 | > 100 | > 100 |  |  |  |  |  |  | 
OC(CC1CCCCN1)c1ccc2c(c1)oc1ccccc12 (stereo unspecified) | > 100 | > 100 | > 100 | > 100 |  |  |  |  |  |  | 
O=C1CS(=O)(=O)C(c2cccc(Oc3ccccc3)c2)N1c1ccc(Cl)cc1 (stereo unspecified) | > 100 | 47.8 | 64.8 | > 100 |  |  |  |  |  |  | 
CN(/N=C/c1ccc(C(=O)O)cc1)C1=NCCCCN1 | > 100 | > 100 | > 100 | > 100 |  |  |  |  |  |  | 
Cc1ccc(-n2[nH]nc(C(N)=O)c2=O)cc1 | > 100 | > 100 | > 100 | > 100 |  |  |  |  |  |  | 
CCOC(=O)CCC(NC(=O)c1ccc(Nc2nc3ccc(C(F)(F)F)cc3nc2-c2ccccc2)cc1)C(=O)OCC (stereo unspecified) | > 100 | > 100 | > 100 | > 100 |  |  |  |  |  |  | 

SMILES | TGI (KM12 colon) [µM] | TGI (OVCAR-8 ovarian) [µM] | TGI (CAKI-1 renal) [µM] | TGI (DU-145 prostate) [µM] | TGI (SNB-78 CNS) [µM] | TGI (DMS 114 small cell lung) [µM] | TGI (DMS 273 small cell lung) [µM] | TGI (DLD-1 colon) [µM] | TGI (M19-MEL melanoma) [µM] | TGI (KM20L2 colon) [µM] | TGI (LXFL 529 NSCLC) [µM]
C=CCn1c(N)c(C#N)c(C#N)c1CCC | > 100 | > 100 | > 100 | > 100 |  |  |  |  |  |  | 
Cc1ccc(C2(O)CSC(=NC34CC5CC(CC(C5)C3)C4)N2C(P(=O)(O)O)P(=O)(O)O)cc1 (stereo unspecified) | > 100 | > 100 | > 100 | > 100 |  |  |  |  |  |  | 
Cc1c(-c2ccccc2)cc(O)c2nc3ccccc3n12 | > 100 | > 100 | > 100 | > 100 |  |  |  |  |  |  | 
O=c1[nH]c2cc(C(F)(F)F)ccc2nc1C(F)(F)F | 71.2 | > 100 | 89.9 | > 100 |  |  |  |  |  |  | 
CC(C)(C)C1CCC(=O)/C(=C/CC2CC(=O)N(c3ccccc3)C(=O)C2)C1 (stereo unspecified) | 33.6 | 39.8 | 41.6 | 40 |  |  |  |  |  |  | 
C[C@@H](C(=O)O)N1C(c2ccco2)=C(/C(C=O)=C\c2ccco2)C(=O)/C1=C\c1ccco1 | > 100 | > 100 | > 100 | > 100 |  |  |  |  |  |  | 
COc1ccc2nc(N/N=C/c3sccc3C)cc(C)c2c1 | 38.3 | > 100 | > 100 | 44.5 |  |  |  |  |  |  | 
CC1(C)OCN(c2ccc(N3CCOCC3)cc2)Cn2c1nc1ccccc12 | > 100 | > 100 |  |  | > 100 | > 100 | > 100 | > 100 | > 100 | > 100 | > 100
Cc1ccc(C(=O)N/N=C(\N=Nc2cccc([N+](=O)[O-])c2)c2ccc(N(CCC#N)CCC#N)cc2C)cc1 | 61.6 | > 91.6 | > 100 | > 100 |  |  |  |  |  |  | 
N#Cc1c(-c2ccc(Cl)cc2)c2c(n(C3OC(CO)C(O)C(O)C3O)c1=S)CCCC2 (stereo unspecified) | > 100 | > 100 | > 100 | > 100 |  |  |  |  |  |  | 
Cc1cccc(Cl)c1NCC(O)CN1CCN(C)CC1 (stereo unspecified) | > 100 | > 100 | > 100 | > 100 |  |  |  |  |  |  | 
COC(=O)[C@@H]1C=C[C@H](OC2OC(COC(C)=O)C(OC(C)=O)C(OC(C)=O)C2OC(C)=O)n2c(=O)n(-c3ccccc3)c(=O)n21 (stereo partly specified) | 19.6 | 8.03 | 2.7 | 15.7 |  |  |  |  |  |  | 
N[C@@H]1CCN(c2c(F)cc3c(=O)c(C(=O)O)cn4c3c2Oc2c-4ccc3c2ccc2ccccc23)C1 | > 100 | > 100 | > 100 | > 100 |  |  |  |  |  |  | 
O=S(=O)(O)c1ccc(N=Nc2ccc3c(S(=O)(=O)O)cccc3c2O)c2ccccc12 | > 100 | > 100 | > 100 | > 100 |  |  |  |  |  |  | 
CC12C=CC(C)(C3C(=O)C4C(C(=O)C31)C1(C)C=CC4(C)S1=O)S2=O (stereo unspecified) | > 100 | > 100 | > 100 | > 100 |  |  |  |  |  |  | 
O=C(NC1=C(Cl)C(=O)c2ccccc2C1=O)c1ccccc1 | > 100 | > 100 |  | > 100 |  |  |  |  |  |  | 
CNc1ncccc1Nc1cc(=O)n2c3cccnc3n(C)c2c1 | > 100 | > 100 | > 100 | > 100 |  |  |  |  |  |  | 
Cc1cc(C)nc(NS(=O)(=O)c2ccc(Nc3c4ccccc4nc4ccc(C(=O)Nc5ccc(S(N)(=O)=O)cc5)cc34)cc2)n1 | > 100 | > 100 | > 100 | > 100 |  |  |  |  |  |  | 
